Results taken from ChEMBL document CHEMBL1201862, “PubChem BioAssay data set” (2004).
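Method: 48-hour compound exposure of cells in 96-well plates, five concentrations, linear interpolation of endpoints. GI50: concentration for 50% inhibition of growth.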 Activity calls are given as the source filed them. Rule as the data show it: active = GI50 up to about 1.1 µM and inactive = higher.

Tests used:
Assay in all cases: NCI tumour cell line growth inhibition, 48 h
A549 = test system: A549
CCRF-CEM = test system: CCRF-CEM
HCT-116 = test system: HCT-116
HOP-92 = test system: HOP-92
HT-29 = test system: HT-29
IGROV-1 = test system: IGROV-1
K562 = test system: K562
MCF7 = test system: MCF7
NCI-H23 = test system: NCI-H23
OVCAR-3 = test system: OVCAR-3
OVCAR-8 = test system: OVCAR-8
PC-3 = test system: PC-3
RPMI-8226 = test system: RPMI-8226
SK-MEL-2 = test system: SK-MEL-2
T47D = test system: T47D
TK-10 = test system: TK-10
UACC-257 = test system: UACC-257
UACC-62 = test system: UACC-62
UO-31 = test system: UO-31
SK-MEL-28 = test system: SK-MEL-28

Measured: GI50

N#CCN(CC#N)C1CC=CCC1N(CC#N)CC#N (stereo unspecified)
inactive: A549 > 100 µM | CCRF-CEM > 100 µM | HCT-116 > 100 µM | HOP-92 > 100 µM | HT-29 > 100 µM | IGROV-1 > 100 µM | K562 > 100 µM | MCF7 > 100 µM | NCI-H23 > 100 µM | OVCAR-3 > 100 µM | OVCAR-8 > 100 µM | PC-3 > 100 µM | RPMI-8226 > 100 µM | SK-MEL-2 > 100 µM | T47D > 100 µM | TK-10 > 100 µM | UACC-257 > 100 µM | UACC-62 > 100 µM | UO-31 > 100 µM

CC(=O)O[C@@H]1[C@@H](O)C2=C3[C@]4(C)[C@@H]1C(C)(C)C(=O)C[C@@H]4[C@]3(O)[C@H](OC(C)=O)[C@@]1(C[C@@H]1C)C2=O
inactive: A549 24.2 µM | CCRF-CEM 7.82 µM | HCT-116 16.1 µM | HOP-92 15.6 µM | IGROV-1 15.4 µM | K562 2.71 µM | MCF7 19 µM | NCI-H23 29.3 µM | OVCAR-3 18.5 µM | OVCAR-8 18.5 µM | PC-3 19.6 µM | RPMI-8226 6.7 µM | SK-MEL-28 16.3 µM | SK-MEL-2 25.6 µM | T47D 16.3 µM | TK-10 14.2 µM | UACC-257 13.9 µM | UACC-62 13.7 µM | UO-31 17.5 µM

c1ccc(Cn2c(-c3ccc(-c4ccccc4)cc3)cc3ccccc32)cc1
inactive: A549 > 100 µM | CCRF-CEM > 100 µM | HCT-116 > 100 µM | HOP-92 > 100 µM | HT-29 > 100 µM | IGROV-1 67.5 µM | MCF7 > 100 µM | NCI-H23 > 100 µM | OVCAR-3 > 100 µM | OVCAR-8 > 100 µM | PC-3 > 100 µM | RPMI-8226 > 100 µM | SK-MEL-28 > 100 µM | SK-MEL-2 94.6 µM | T47D > 100 µM | TK-10 > 100 µM | UACC-257 > 100 µM | UACC-62 > 100 µM | UO-31 > 100 µM

CC(C)(NO)/C(=N\O)c1ccccc1
inactive: CCRF-CEM > 10 µM | HCT-116 > 10 µM | HOP-92 > 10 µM | HT-29 > 10 µM | K562 > 10 µM | MCF7 > 10 µM | NCI-H23 > 10 µM | OVCAR-3 > 10 µM | OVCAR-8 > 10 µM | PC-3 > 10 µM | RPMI-8226 > 10 µM | SK-MEL-2 > 10 µM | T47D > 10 µM | TK-10 > 10 µM | UACC-257 > 10 µM | UO-31 > 10 µM

COc1ccc2c(c1)OCC1(O)Cc3ccccc3OC21 (stereo unspecified)
inactive: A549 > 100 µM | CCRF-CEM > 100 µM | HCT-116 > 100 µM | HOP-92 > 100 µM | HT-29 > 100 µM | IGROV-1 > 100 µM | K562 > 100 µM | MCF7 > 100 µM | NCI-H23 > 100 µM | OVCAR-3 > 100 µM | OVCAR-8 > 100 µM | PC-3 > 100 µM | RPMI-8226 > 100 µM | SK-MEL-2 > 100 µM | T47D > 100 µM | TK-10 > 100 µM | UACC-257 > 100 µM | UACC-62 > 100 µM | UO-31 > 100 µM

O=C(Nc1ccccc1)c1cc2c(cc1Cl)SC(NNCCO)=NS2(=O)=O
inactive: CCRF-CEM > 100 µM | HCT-116 > 100 µM | HOP-92 > 100 µM | HT-29 > 100 µM | IGROV-1 > 100 µM | K562 > 100 µM | MCF7 > 100 µM | NCI-H23 > 100 µM | OVCAR-8 > 100 µM | PC-3 > 100 µM | RPMI-8226 > 100 µM | SK-MEL-28 > 100 µM | SK-MEL-2 > 100 µM | T47D > 100 µM | TK-10 > 100 µM | UACC-257 > 100 µM | UACC-62 > 100 µM | UO-31 > 100 µM

CCCCCCNC(=O)c1cnc(Cl)cn1
inactive: A549 13.8 µM | CCRF-CEM 13.7 µM | HCT-116 17.1 µM | HOP-92 3.15 µM | HT-29 33.1 µM | IGROV-1 10.5 µM | K562 13 µM | MCF7 5.15 µM | NCI-H23 11.1 µM | OVCAR-8 12.4 µM | PC-3 5.51 µM | RPMI-8226 29 µM | SK-MEL-28 24 µM | SK-MEL-2 14.7 µM | T47D 20 µM | TK-10 22.4 µM | UACC-257 14.3 µM | UACC-62 17.2 µM | UO-31 1.85 µM

CCC(=O)Nc1ccc(N2C(=O)C(Cl)C2c2ccc(SC)cc2)cc1 (stereo unspecified)
inactive: A549 > 100 µM | CCRF-CEM 26.9 µM | HCT-116 > 100 µM | HOP-92 > 100 µM | HT-29 > 100 µM | IGROV-1 94.2 µM | K562 72.9 µM | MCF7 56.2 µM | NCI-H23 > 100 µM | OVCAR-3 81.5 µM | OVCAR-8 > 100 µM | PC-3 > 100 µM | RPMI-8226 32.5 µM | SK-MEL-28 > 100 µM | SK-MEL-2 65 µM | T47D 73.6 µM | UACC-257 44.9 µM | UACC-62 > 100 µM | UO-31 > 100 µM

CNC(=O)c1cc(NC(=O)N(CCC#N)CCN(C(=O)N[C@@H](Cc2ccccc2)C(=O)N[C@@H](CC(C)C)C(=O)NC)c2ccccc2)ccc1OC
inactive: A549 > 100 µM | CCRF-CEM > 66.1 µM | HCT-116 > 63.7 µM | HOP-92 20.9 µM | HT-29 > 100 µM | IGROV-1 24.4 µM | MCF7 > 76 µM | NCI-H23 > 100 µM | OVCAR-3 > 65.8 µM | OVCAR-8 > 91.2 µM | PC-3 > 80 µM | RPMI-8226 56.8 µM | SK-MEL-28 29.3 µM | SK-MEL-2 31.8 µM | T47D > 47.6 µM | TK-10 > 72.6 µM | UACC-257 19.5 µM | UACC-62 23.2 µM | UO-31 > 52 µM

CN(C)c1ccc(/C=C2\N=C(N/N=C/c3ccc(N(C)C)cc3)NC2=O)cc1
inactive: A549 92.5 µM | CCRF-CEM 27.5 µM | HCT-116 > 100 µM | HOP-92 25.5 µM | HT-29 42.7 µM | IGROV-1 38.7 µM | MCF7 71.9 µM | NCI-H23 > 100 µM | OVCAR-3 50.9 µM | OVCAR-8 24.8 µM | PC-3 > 100 µM | RPMI-8226 76.6 µM | SK-MEL-28 > 100 µM | SK-MEL-2 > 100 µM | T47D 16.7 µM | TK-10 > 100 µM | UACC-257 > 100 µM | UACC-62 > 100 µM | UO-31 > 100 µM
